Data from paper PMC7402526, “An in vitro quantitative systems pharmacology approach for deconvolving mechanisms of drug-induced, multilineage cytopenias” (PLoS Computational Biology, 2020).

Assays:
[1] = system: hematopoietic stem cells (HSCs); test: Multi-lineage toxicity assay (MLTA), HSCs: concentration-response and QSP model fit; type: cell-based, human; design: EmaxAP,HSC / EmaxT,HSC / Emax_drug_HSC: unitless, 0–2; ≤1 anti-proliferative, >1 adds cell killing
Procedure, shortened: (§1)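 Freeze-thawed primary human bone marrow CD34+ cells were cultured 6 days in SFEM II with a cytokine cocktail, drug added on day 0. Subsets were counted by 17-parameter flow cytometry with TruCount beads and normalized to vehicle wells. An Emax QSP model (Emax 0–2, L1 regularization) was fitted to these counts.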

[2] = system: granulocyte progenitor (Gran-lin prog); test: MLTA, GranP: concentration-response and QSP model fit; type: cell-based, human; details: Homo sapiens, 144 h
Procedure, shortened: (§2)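 Drug was added at time 0 to thawed human bone marrow CD34+ cells in SFEM II plus a cytokine cocktail. After 6 days at 37°C, subsets were counted by surface-marker flow with TruCount beads. Vehicle-normalized, donor-pooled data then fed an Emax model separating anti-proliferative from cell-killing effects.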

[3] = system: monocyte progenitors (monocyte prog); test: MLTA, MonoP: concentration-response and QSP model fit; type: cell-based, human; details: Homo sapiens, Monocyte, 144 h
Procedure, shortened: as §2

[4] = system: monocytes (monocyte-lin); test: MLTA, Mono: concentration-response and QSP model fit; type: cell-based, human; details: Homo sapiens, Monocyte, 144 h
Procedure, shortened: as §2

[5] = system: early erythroid cells (Eryth I); test: MLTA, ErythI: concentration-response and QSP model fit; type: cell-based, human; details: Homo sapiens, 144 h
Procedure, shortened: as §2

[6] = system: lymphocyte progenitors (LymP); test: MLTA, LymP: concentration-response and QSP model fit; type: cell-based, human; details: Homo sapiens, Lymphocyte, 144 h
Procedure, shortened: as §1

[7] = system: total viable cells (totalViableCells); test: MLTA, total live cells concentration-response; type: cell-based; details: Homo sapiens, 144 h, 6 days, normalized to vehicle control, read-out: total_live normalized cell count
Procedure, shortened: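 Freeze-thawed primary human bone marrow CD34+ cells in SFEM II with cytokine cocktail, drug added day 0, 6 days at 37°C, 5% CO2. Live/dead counts by 17-parameter flow cytometry with DAPI exclusion, bead-normalized, volume-corrected to cells/mL. Normalized per donor to mean of six vehicle wells; 2–7 donors pooled.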

SMILES: CCc1cnn2c(NCc3ccc[n+]([O-])c3)cc(N3CCCC[C@H]3CCO)nc12 [dinaciclib]
- activity at 0.0002 µM ([1]; Homo sapiens, Hematopoietic stem cell, 144 h, dose 0.2 nM, 6 days, normalized to vehicle control, read-out: HSCs normalized cell count): 89.5%
- activity at 0.001 µM ([1]; Homo sapiens, Hematopoietic stem cell, 144 h, dose 1 nM, 6 days, normalized to vehicle control, read-out: HSCs normalized cell count): 106%
- activity at 0.005 µM ([1]; Homo sapiens, Hematopoietic stem cell, 144 h, dose 5 nM, 6 days, normalized to vehicle control, read-out: HSCs normalized cell count): 115%
- activity at 0.025 µM ([1]; Homo sapiens, Hematopoietic stem cell, 144 h, dose 25 nM, 6 days, normalized to vehicle control, read-out: HSCs normalized cell count): 61.2%
- activity at 0.1 µM ([1]; Homo sapiens, Hematopoietic stem cell, 144 h, dose 100 nM, 6 days, normalized to vehicle control, read-out: HSCs normalized cell count): 1.89%
- activity at 0.5 µM ([1]; Homo sapiens, Hematopoietic stem cell, 144 h, dose 500 nM, 6 days, normalized to vehicle control, read-out: HSCs normalized cell count): 5.17%
- activity at 2.5 µM ([1]; Homo sapiens, Hematopoietic stem cell, 144 h, dose 2500 nM, 6 days, normalized to vehicle control, read-out: HSCs normalized cell count): 1.3%
- Emax ([1]; Homo sapiens, Hematopoietic stem cell, 144 h, parameter from QSP model fitting, read-out: Emax_drug_HSC): 103%
- EmaxAP,HSC ([1]; anti-proliferation component, min(1, EmaxT)): 1.000
- activity at 0.0002 µM ([2]; dose 0.2 nM, 6 days, normalized to vehicle control, read-out: GranPs normalized cell count): 97.3%
- activity at 0.001 µM ([2]; dose 1 nM, 6 days, normalized to vehicle control, read-out: GranPs normalized cell count): 99.7%
- activity at 0.005 µM ([2]; dose 5 nM, 6 days, normalized to vehicle control, read-out: GranPs normalized cell count): 93.8%
- activity at 0.025 µM ([2]; dose 25 nM, 6 days, normalized to vehicle control, read-out: GranPs normalized cell count): 31.7%
- activity at 0.1 µM ([2]; dose 100 nM, 6 days, normalized to vehicle control, read-out: GranPs normalized cell count): 0.0459%
- activity at 0.5 µM ([2]; dose 500 nM, 6 days, normalized to vehicle control, read-out: GranPs normalized cell count): 0.033%
- activity at 2.5 µM ([2]; dose 2500 nM, 6 days, normalized to vehicle control, read-out: GranPs normalized cell count): 0.0254%
- Emax ([2]; parameter from QSP model fitting, read-out: Emax_drug_GranP): 0.0135%
- activity at 0.0002 µM ([3]; dose 0.2 nM, 6 days, normalized to vehicle control, read-out: MonoPs normalized cell count): 96.5%
- activity at 0.001 µM ([3]; dose 1 nM, 6 days, normalized to vehicle control, read-out: MonoPs normalized cell count): 106%
- activity at 0.005 µM ([3]; dose 5 nM, 6 days, normalized to vehicle control, read-out: MonoPs normalized cell count): 125%
- activity at 0.025 µM ([3]; dose 25 nM, 6 days, normalized to vehicle control, read-out: MonoPs normalized cell count): 61.8%
- activity at 0.1 µM ([3]; dose 100 nM, 6 days, normalized to vehicle control, read-out: MonoPs normalized cell count): 0.141%
- activity at 0.5 µM ([3]; dose 500 nM, 6 days, normalized to vehicle control, read-out: MonoPs normalized cell count): 0.19%
- activity at 2.5 µM ([3]; dose 2500 nM, 6 days, normalized to vehicle control, read-out: MonoPs normalized cell count): 0.231%
- Emax ([3]; parameter from QSP model fitting, read-out: Emax_drug_MonoP): 0.04%
- activity at 0.0002 µM ([4]; dose 0.2 nM, 6 days, normalized to vehicle control, read-out: Mon normalized cell count): 90.7%
- activity at 0.001 µM ([4]; dose 1 nM, 6 days, normalized to vehicle control, read-out: Mon normalized cell count): 106%
- activity at 0.005 µM ([4]; dose 5 nM, 6 days, normalized to vehicle control, read-out: Mon normalized cell count): 69.5%
- activity at 0.025 µM ([4]; dose 25 nM, 6 days, normalized to vehicle control, read-out: Mon normalized cell count): 8.55%
- activity at 0.1 µM ([4]; dose 100 nM, 6 days, normalized to vehicle control, read-out: Mon normalized cell count): 0.496%
- activity at 0.5 µM ([4]; dose 500 nM, 6 days, normalized to vehicle control, read-out: Mon normalized cell count): 0.834%
- activity at 2.5 µM ([4]; dose 2500 nM, 6 days, normalized to vehicle control, read-out: Mon normalized cell count): 0.535%
- Emax ([4]; parameter from QSP model fitting, read-out: Emax_drug_Mono): 48.2%
- activity at 0.0002 µM ([5]; dose 0.2 nM, 6 days, normalized to vehicle control, read-out: ErythI normalized cell count): 112%
- activity at 0.001 µM ([5]; dose 1 nM, 6 days, normalized to vehicle control, read-out: ErythI normalized cell count): 104%
- activity at 0.005 µM ([5]; dose 5 nM, 6 days, normalized to vehicle control, read-out: ErythI normalized cell count): 73.3%
- activity at 0.025 µM ([5]; dose 25 nM, 6 days, normalized to vehicle control, read-out: ErythI normalized cell count): 23.9%
- activity at 0.1 µM ([5]; dose 100 nM, 6 days, normalized to vehicle control, read-out: ErythI normalized cell count): 0.828%
- activity at 0.5 µM ([5]; dose 500 nM, 6 days, normalized to vehicle control, read-out: ErythI normalized cell count): 0.888%
- activity at 2.5 µM ([5]; dose 2500 nM, 6 days, normalized to vehicle control, read-out: ErythI normalized cell count): 0.845%
- Emax ([5]; parameter from QSP model fitting, read-out: Emax_drug_ErythroidI): 112%
- activity at 0.0002 µM ([6]; dose 0.2 nM, 6 days, normalized to vehicle control, read-out: LymP normalized cell count): 89.4%
- activity at 0.001 µM ([6]; dose 1 nM, 6 days, normalized to vehicle control, read-out: LymP normalized cell count): 105%
- activity at 0.005 µM ([6]; dose 5 nM, 6 days, normalized to vehicle control, read-out: LymP normalized cell count): 99.3%
- activity at 0.025 µM ([6]; dose 25 nM, 6 days, normalized to vehicle control, read-out: LymP normalized cell count): 38.3%
- activity at 0.1 µM ([6]; dose 100 nM, 6 days, normalized to vehicle control, read-out: LymP normalized cell count): 3.05%
- activity at 0.5 µM ([6]; dose 500 nM, 6 days, normalized to vehicle control, read-out: LymP normalized cell count): 7.81%
- activity at 2.5 µM ([6]; dose 2500 nM, 6 days, normalized to vehicle control, read-out: LymP normalized cell count): 2.53%
- Emax ([6]; parameter from QSP model fitting, read-out: Emax_drug_LymP): 115%
- viability at 0.0002 µM ([7]; dose 0.2 nM): 95.4%
- viability at 0.001 µM ([7]; dose 1 nM): 107%
- viability at 0.005 µM ([7]; dose 5 nM): 92.4%
- viability at 0.025 µM ([7]; dose 25 nM): 26.1%
- viability at 0.1 µM ([7]; dose 100 nM): 0.282%
- viability at 0.5 µM ([7]; dose 500 nM): 0.4%
- viability at 2.5 µM ([7]; dose 2500 nM): 0.255%
